This assay deals with T1, CFTR (Homo sapiens, UniProt P13569, DEL508-508).
T1 construct: human bronchial epithelial (HBE) cells derived from CF subjects heterozygous for F508del; endogenous in cells; host or cells: primary human bronchial epithelial cells from CF subjects (F508del/MF-HBE)
Description: HBE assay: Ussing chamber assay of CFTR-mediated short-circuit currents (F508del/MF-HBE, with 1 μM Ivacaftor). It counts as cell-based. The following applies: F508del/MF-HBE cells, 18-24 hours, 20% human serum; for EC50: range of concentrations with 1 μM Ivacaftor; for HBE Max Activity: with 1 μM Ivacaftor, compared to known Vertex corrector with 18 μM Tezacaftor and 1 μM Ivacaftor; for HBE Activity at 10 μM: single fixed concentration of 10 μM with 1 μM Ivacaftor. Here is the method: 1. Ussing Chamber Assay of CFTR-mediated short-circuit currents
Ussing chamber experiments were performed using human bronchial epithelial (HBE) cells derived from CF subjects heterozygous for F508del and a minimal function CFTR mutation (F508del/MF-HBE) and cultured as previously described (Neuberger T, Burton B, Clark H, Van Goor F Methods Mol Biol 2011:741:39-54). After four days the apical media was removed, and the cells were grown at an air liquid interface for >14 days prior to use.
To isolate the CFTR-mediated short-circuit (ISC) current, F508del/MF-HBE grown on Costar® Snapwell™ cell culture inserts were mounted in an Ussing chamber and the transepithelial ISC was measured under voltage-clamp recording conditions (Vhold=0 mV) at 37° C. The basolateral solution contained (in mM) 145 NaCl, 0.83 K2HPO4, 3.3 KH2PO4, 1.2 MgCl2, 1.2 CaCl2), 10 Glucose, 10 HEPES (pH adjusted to 7.4 with NaOH) and the apical solution contained (in mM) 145 NaGluconate, 1.2 MgCl2, 1.2 CaCl2), 10 glucose, 10 HEPES (pH adjusted to 7.4 with NaOH) and 30 μM amiloride to block the epithelial sodium channel. Forskolin (20 μM) was added to the apical surface to activate CFTR, followed by apical addition of a CFTR inhibitor cocktail consisting of BPO, GlyH-101, and CFTR inhibitor 172 (each at 20 μM final assay concentration) to specifically isolate CFTR currents. The CFTR-mediated ISC (μA/cm^2) for each condition was determined from the peak forskolin response to the steady-state current following inhibition.
2. Identification of Corrector Compounds
The activity of the CFTR corrector compounds on the CFTR-mediated ISC was determined in Ussing chamber studies as described above. The F508del/MF-HBE cell cultures were either incubated with the corrector compounds at a range of concentrations in combination with 1 μM Ivacaftor or were incubated with the corrector compounds at a single fixed concentration of 10 μM in combination with 1 μM Ivacaftor for 18-24 hours at 37° C. and in the presence of 20% human serum. The concentration of corrector compounds with 1 μM Ivacaftor during the 18-24 hours incubations was kept constant throughout the Ussing chamber measurement of the CFTR-mediated ISC to ensure compounds were present throughout the entire experiment.

Each structure is given as a SMILES string.

What is called EC50 is the concentration giving half of the maximal effect.

T1 sequence (P13569 with tags, fused parts or gaps DEL508-508): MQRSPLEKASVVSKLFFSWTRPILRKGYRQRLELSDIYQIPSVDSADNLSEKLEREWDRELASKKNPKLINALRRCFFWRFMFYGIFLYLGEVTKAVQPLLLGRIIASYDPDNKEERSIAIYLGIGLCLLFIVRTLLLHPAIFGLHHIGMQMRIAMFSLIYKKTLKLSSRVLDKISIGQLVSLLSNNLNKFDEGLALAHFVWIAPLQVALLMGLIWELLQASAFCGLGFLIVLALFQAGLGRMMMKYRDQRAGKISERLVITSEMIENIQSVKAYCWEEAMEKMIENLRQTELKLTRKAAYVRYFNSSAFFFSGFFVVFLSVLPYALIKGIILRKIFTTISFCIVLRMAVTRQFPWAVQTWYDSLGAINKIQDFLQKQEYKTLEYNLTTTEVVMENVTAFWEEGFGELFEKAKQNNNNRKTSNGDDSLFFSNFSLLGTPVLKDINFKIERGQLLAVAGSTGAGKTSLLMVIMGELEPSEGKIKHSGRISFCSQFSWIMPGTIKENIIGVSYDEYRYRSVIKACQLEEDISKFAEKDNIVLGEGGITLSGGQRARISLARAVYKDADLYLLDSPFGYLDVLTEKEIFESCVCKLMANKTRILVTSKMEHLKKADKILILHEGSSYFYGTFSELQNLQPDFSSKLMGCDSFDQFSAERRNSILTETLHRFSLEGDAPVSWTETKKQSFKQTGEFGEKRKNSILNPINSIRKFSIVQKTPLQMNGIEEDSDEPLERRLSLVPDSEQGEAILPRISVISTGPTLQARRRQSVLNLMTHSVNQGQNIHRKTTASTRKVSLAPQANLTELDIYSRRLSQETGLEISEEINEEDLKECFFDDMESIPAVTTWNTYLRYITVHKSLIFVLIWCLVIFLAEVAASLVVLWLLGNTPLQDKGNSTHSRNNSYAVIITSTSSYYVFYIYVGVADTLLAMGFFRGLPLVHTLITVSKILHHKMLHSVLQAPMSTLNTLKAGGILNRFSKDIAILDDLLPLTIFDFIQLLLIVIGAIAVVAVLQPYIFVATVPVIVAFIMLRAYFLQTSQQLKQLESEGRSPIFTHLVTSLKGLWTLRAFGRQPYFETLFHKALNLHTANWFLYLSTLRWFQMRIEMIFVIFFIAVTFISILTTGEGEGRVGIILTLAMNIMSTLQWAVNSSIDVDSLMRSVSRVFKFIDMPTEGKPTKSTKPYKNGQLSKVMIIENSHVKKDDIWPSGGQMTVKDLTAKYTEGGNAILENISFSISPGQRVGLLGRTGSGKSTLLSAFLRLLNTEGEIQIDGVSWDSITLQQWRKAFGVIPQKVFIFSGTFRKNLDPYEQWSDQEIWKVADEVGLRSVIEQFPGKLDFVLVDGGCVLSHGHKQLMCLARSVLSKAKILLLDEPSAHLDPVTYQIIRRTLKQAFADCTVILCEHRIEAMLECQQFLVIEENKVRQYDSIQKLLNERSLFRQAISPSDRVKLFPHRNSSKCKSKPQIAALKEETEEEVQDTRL

`Cc1cccc(C)c1-c1cc2nc(n1)NS(=O)(=O)c1cccc(c1)C(=O)N(C1CC3(CC(N4C[C@@H](C)O[C@@H](C)C4)C3)C1)[C@H](CC(C)(C)C)CO2` (single isomer, unassigned) [Compound 86]: the EC50 is below 1000 nM and the “HBE Max Activity” value was “+++ (+++ is >60%)”. Taken in the same sequence, the figures for `Cc1cccc(C)c1-c1cc2nc(n1)NS(=O)(=O)c1cccc(c1)C(=O)N(C1CC3(CC(N4C[C@@H](C)O[C@@H](C)C4)C3)C1)[C@H](CC(C)(C)C)CO2` (single isomer, unassigned) [Compound 87] were below 1000 nM and “+++ (+++ is >60%)”. The matching figures for `Cc1cccc(C)c1-c1cc2nc(n1)NS(=O)(=O)c1cccc(c1)C(=O)N([C@H]1C[C@](C)(O)C1)[C@H](CC(C)(C)C)CO2` (single isomer, unassigned) [Compound 139]: below 1000 nM and “+++ (+++ is >60%)”.

With `Cc1cccc(C)c1-c1cc2nc(n1)NS(=O)(=O)c1cccc(c1)C(=O)N([C@H]1C[C@@](O)(Cc3ccccc3)C1)[C@H](CC(C)(C)C)CO2` (single isomer, unassigned) [Compound 140], the EC50 was below 1000 nM and the “HBE Max Activity” value is “+++ (+++ is >60%)”. Taken in the same sequence, the figures for `Cc1cccc(C)c1-c1cc2nc(n1)NS(=O)(=O)c1cccc(c1)C(=O)N([C@H]1C[C@@]3(CCCN(C(=O)CO)C3)C1)[C@H](CC(C)(C)C)CO2` (single isomer, unassigned) [Compound 144] were below 1000 nM and “+++ (+++ is >60%)”.

For `Cc1cccc(C)c1-c1cc2nc(n1)NS(=O)(=O)c1cccc(c1)C(=O)N([C@H]1C[C@@]3(CCCN(C(=O)CO)C3)C1)[C@H](CC(C)(C)C)CO2` (single isomer, unassigned) [Compound 145], the EC50 is below 1000 nM and the “HBE Max Activity” value is reported as “+++ (+++ is >60%)”.

For the compound `Cc1cccc(C)c1-c1cc2nc(n1)NS(=O)(=O)c1cccc(c1)C(=O)N(C1CC3(CC(N4CCOCC4)C3)C1)[C@H](CC(C)(C)C)CO2` (single isomer, unassigned) [Compound 432], the EC50 is below 1000 nM and the “HBE Max Activity” value was “+++ (+++ is >60%)”.

Regarding `Cc1cccc(C)c1-c1cc2nc(n1)NS(=O)(=O)c1cccc(c1)C(=O)N(C1CC3(CCCCN3C(=O)CO)C1)[C@H](CC(C)(C)C)CO2` (stereo in doubt) [Compound 203], the “HBE Activity at 10 μM” value was “+++ (+++ is >60%)”. `Cc1cccc(C)c1-c1cc2nc(n1)NS(=O)(=O)c1cccc(c1)C(=O)N(C1CC3(CCCCN3C(=O)CO)C1)[C@H](CC(C)(C)C)CO2` (stereo in doubt) [Compound 204]: the “HBE Activity at 10 μM” value is on record as “+++ (+++ is >60%)”. Take `Cc1cccc(C)c1-c1cc2nc(n1)NS(=O)(=O)c1cccc(c1)C(=O)N(C1CC3(CCCN3C(=O)CO)C1)[C@H](CC(C)(C)C)CO2` (stereo in doubt) [Compound 205]: the EC50 was below 1000 nM and the “HBE Max Activity” value is reported as “+++ (+++ is >60%)”. `Cc1cccc(C)c1-c1cc2nc(n1)NS(=O)(=O)c1cccc(c1)C(=O)N(C1CC3(CCCN3C(=O)CO)C1)[C@H](CC(C)(C)C)CO2` (stereo in doubt) [Compound 206]: the EC50 is below 1000 nM and the “HBE Max Activity” value was “+++ (+++ is >60%)”. As for `Cc1cccc(C)c1-c1cc2nc(n1)NS(=O)(=O)c1cccc(c1)C(=O)N([C@H]1CC3(C[C@H](N(C)CCC(F)(F)F)C3)C1)[C@H](CC1(C(F)(F)F)CC1)CO2` (stereo in doubt) [Compound 219], the “HBE Activity at 10 μM” value is “+++ (+++ is >60%)”. For `Cc1cccc(C)c1-c1cc2nc(n1)NS(=O)(=O)c1cccc(c1)C(=O)N([C@H]1C[C@@]3(C[C@H](NCC(F)(F)F)C3)C1)[C@H](CC1(C(F)(F)F)CC1)CO2` (stereo in doubt) [Compound 220], the EC50 is below 1000 nM and the “HBE Max Activity” value is reported as “+++ (+++ is >60%)”. As for `Cc1cccc(CO)c1-c1cc2nc(n1)NS(=O)(=O)c1cccc(c1)C(=O)N([C@H]1CC3(C[C@H](NC(=O)OC(C)C)C3)C1)[C@H](CC(C)(C)C)CO2` (stereo in doubt) [Compound 402], the “HBE Activity at 10 μM” value was “++ (++ is 30-60%)”. Still for that read-out and setting: then `Cc1cccc(CO)c1-c1cc2nc(n1)NS(=O)(=O)c1cccc(c1)C(=O)N([C@H]1CC3(C[C@H](NC(=O)OC(C)C)C3)C1)[C@H](CC(C)(C)C)CO2` (stereo in doubt) [Compound 403], with “++ (++ is 30-60%)”. For the compound `Cc1cccc(C)c1-c1cc2nc(n1)NS(=O)(=O)c1cccc(c1)C(=O)N(C1CC3(C1)CC(O)(Cc1ccccc1)C3)[C@H](CC(C)(C)C)CO2` (stereo in doubt) [Compound 430], the half-maximal effective concentration (EC50) is below 1000 nM and the “HBE Max Activity” value is listed as “+++ (+++ is >60%)”.

For `Cc1cccc(C)c1-c1cc2nc(n1)NS(=O)(=O)c1cccc(c1)C(=O)N(C1CC3(C1)CC(O)(Cc1ccccc1)C3)[C@H](CC(C)(C)C)CO2` (stereo in doubt) [Compound 431], the EC50 was below 1000 nM and the “HBE Max Activity” value was “+++ (+++ is >60%)”. Regarding `Cc1cccc(C)c1-c1cc2nc(n1)NS(=O)(=O)c1cccc(c1)C(=O)N(C1CC(N3C[C@@H](C)O[C@@H](C)C3)C1)[C@H](CC(C)(C)C)CO2` (stereo in doubt) [Compound 434], the “HBE Activity at 10 μM” value was “+++ (+++ is >60%)”. Consider `Cc1cccc(C)c1-c1cc2nc(n1)NS(=O)(=O)c1cccc(c1)C(=O)N(c1cn[nH]c1)[C@H](CC(C)C)CO2` [Compound 99, (11R)-6-(2,6-Dimethylphenyl)-11-isobutyl-2,2-dioxo-12-(1H-pyrazol-4-yl)-9-oxa-2λ^6-thia-3,5,12,19-tetrazatricyclo[12.3.1.14,8]nonadeca-1(18),4(19),5,7,14,16-hexaen-13-one], for which the EC50 lay within 3000 to 30000 nM and the “HBE Max Activity” value was “+++ (+++ is >60%)”. Taken in the same sequence, the figures for `Cc1cccc(C)c1-c1cc2nc(n1)NS(=O)(=O)c1cccc(c1)C(=O)N([C@H]1C[C@@H](N3CCOCC3)C1)[C@H](CC(C)(C)C)CO2` [Compound 178, (11R)-6-(2,6-Dimethylphenyl)-11-(2,2-dimethylpropyl)-12-(3-morpholinocyclobutyl)-2,2-dioxo-9-oxa-2λ^6-thia-3,5,12,19-tetrazatricyclo[12.3.1.14,8]nonadeca-1(18),4(19),5,7,14,16-hexaen-13-one] were below 1000 nM and “+++ (+++ is >60%)”. Take `Cc1cccc(C)c1-c1cc2nc(n1)NS(=O)(=O)c1cccc(c1)C(=O)N(c1cn[nH]c1)[C@H](CC(C)(C)C)CO2` [Compound 185, (11R)-6-(2,6-Dimethylphenyl)-11-(2,2-dimethylpropyl)-2,2-dioxo-12-(1H-pyrazol-4-yl)-9-oxa-2λ^6-thia-3,5,12,19-tetrazatricyclo[12.3.1.14,8]nonadeca-1(18),4(19),5,7,14,16-hexaen-13-one]: the EC50 was below 1000 nM and the “HBE Max Activity” value is reported as “+++ (+++ is >60%)”. For `Cc1cccc(CO)c1-c1cc2nc(n1)NS(=O)(=O)c1cccc(c1)C(=O)N(C1CC3(CC(NC(=O)OC(C)C)C3)C1)[C@H](CC(C)(C)C)CO2` (stereo partly drawn) [Compound 209], the “HBE Activity at 10 μM” value is recorded as “++ (++ is 30-60%)”. For `Cc1cccc(C)c1-c1cc2nc(n1)NS(=O)(=O)c1cccc(c1)C(=O)N([C@H]1C[C@@]3(C[C@H](NCCC(F)(F)F)C3)C1)[C@H](CC1(C(F)(F)F)CC1)CO2` (stereo partly drawn) [Compound 218], the EC50 is below 1000 nM and the “HBE Max Activity” value is on record as “+++ (+++ is >60%)”. The matching figures for `Cc1cccc(C)c1-c1cc2nc(n1)NS(=O)(=O)c1cccc(c1)C(=O)N([C@H]1C[C@@]3(C[C@H](N(C)CC(F)(F)F)C3)C1)[C@H](CC1(C(F)(F)F)CC1)CO2` (stereo partly drawn) [Compound 221]: below 1000 nM and “+++ (+++ is >60%)”. On to `Cc1cccc(C)c1-c1cc2nc(n1)NS(=O)(=O)c1cccc(c1)C(=O)N(C1CC3(CCN(c4ccccn4)CC3)C1)[C@H](CC(C)(C)C)CO2` [Compound 350], for which the EC50 was below 1000 nM and the “HBE Max Activity” value is “+++ (+++ is >60%)”. Consider `Cc1cccc(C)c1-c1cc2nc(n1)NS(=O)(=O)c1cccc(c1)C(=O)N(c1cnn(CC(N)=O)c1)[C@H](CC(C)(C)C)CO2` [Compound 426], for which the EC50 lay within 1000 to 3000 nM and the “HBE Max Activity” value was “+++ (+++ is >60%)”.
